Data reported in patent US8114425B2, “Process for the production of wood-based materials” (LANXESS Deutschland GmbH, priority 2008, dated 2012).

Experiments:
[1] = test system: Reticulitermes santonensis; assay: Termite resistance compulsory test analogous to EN 117 on OSB boards; format: in vivo; conditions: OSB board with 0.00153% thiacloprid, PF glue outer layers, pressed at 190-200° C.; inspection of the surfaces after 8 weeks
From the text: Pine chips (strands for the production of OSB) whose fine fraction of <6 mm was removed by means of screening were wetted with phenol-formaldehyde glue (PF, manufacturer Georgia Pacific; type GP 155 C 42; pH about 11-13) for the outer layers and with polymethylene diisocyanate glue (PMDI; manufacturer Bayer; type Desmodur 1520 A 20) for the middle layer. The outer and middle layer chips treated in each case were then wetted with an aqueous solution containing 0.5% of thiacloprid and finally in each case with a wax emulsion (Sasolwax Hydrowax 730). The application was effected in each case using an atomizer (spinning disc system) in a chip mixer. The amount of alkaline binder was 4.5% of PF (or 2.5% of PMDI) solid resin mass fraction in the finished OSB board. This corresponds to about 10% mass fraction, based on the chips used, for the PF glue. The aqueous solution containing thiacloprid was used with 2000 ml/m^3 of finished OSB board. At a density of 650 kg/m^3, this corresponds to 0.00153% of thiacloprid, based on the finished OSB board. The proportion of wax was 0.8% by mass, based on the OSB board. The OSB wood composites produced were produced from 60% of PF glue-coated chips as outer layers and 40% of PMDI glue-coated chips as the middle layer in a press at 500 N/cm^2 and with press plate temperatures of 190-200° C. […]

[2] = Investigation of the thermal lability of thiacloprid in NaOH solution; format: physicochemical; conditions: NaOH solution pH 13.7
Procedure: 5 g of NaOH were dissolved in 250 ml of distilled water (pH 13.7) and 100 mg of active substance were added. Stirring was then effected for 15 min at different temperatures. The mixture was extracted twice with methylene chloride, neutralized and evaporated down. The residue was weighed and was analysed by NMR, GC, GC-MS or HPLC.

Question: For `N#C/N=C1\SCCN1Cc1ccc(Cl)nc1` [thiacloprid], which “traces of feeding on test specimen surfaces” value [1] is on record?
Answer: Its value is “No measurable traces of feeding”.

Question: And the “stability in NaOH solution” value ([2]; 35° C., 15 min stirring)?
Answer: The value was “stable”.

Question: And the “degradation in NaOH solution” value ([2]; 75° C., 15 min stirring)?
Answer: The value was 100%.

Question: What about the “degradation in NaOH solution (in words)” value ([2]; 75° C., after only 15 min) of the same molecule?
Answer: Its value is “completely degraded”.
